In this test the test system is nude mice, LX-1 lung xenograft intrarenal, tumor weight T/C. The test is described as follows: NCI In Vivo Anticancer Drug Screen. Data for tumor model Human Lung LX-1 Xenograft (intrarenal inoculation) in NU/NU Swiss (nude) mice. The note with it: endpoint: mean tumor weight change, higher = larger tumour. The essentials: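 Activity was scored by measuring tumors in treated animals and in vehicle controls, then reporting the treated result as a fraction of the control result.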
(A xenograft is tissue or cells of one species grown in another, often human tumour cells in immunodeficient mice.)

Where [1] appears, read: dose: 100.0 mg/kg/injection, schedule: Q04DX003 (sc), vehicle: saline.
[2] abbreviates: dose: 50.0 mg/kg/injection, schedule: Q04DX003 (sc), vehicle: saline with Tween-80.
Where [3] appears, read: dose: 100.0 mg/kg/injection, schedule: Q04DX003 (sc), vehicle: saline with Tween-80.
The mark [4] stands for this setting: dose: 200.0 mg/kg/injection, schedule: Q04DX003 (sc), vehicle: saline with Tween-80.
Setting [5] is: dose: 100.0 mg/kg/injection, schedule: Q01DX010 (sc), vehicle: saline with Tween-80.
[6] abbreviates: dose: 200.0 mg/kg/injection, schedule: Q01DX010 (sc), vehicle: saline with Tween-80.
Setting [7] is: dose: 400.0 mg/kg/injection, schedule: Q01DX010 (sc), vehicle: saline with Tween-80.
Where [8] appears, read: dose: 300.0 mg/kg/injection, schedule: Q04DX003 (sc), vehicle: saline with Tween-80.
Setting [9] is: dose: 600.0 mg/kg/injection, schedule: Q04DX003 (sc), vehicle: saline with Tween-80.
Where [10] appears, read: dose: 400.0 mg/kg/injection, schedule: Q04DX003 (sc), vehicle: saline with Tween-80.

The record followed here is PubChem BioAssay AID264 (DTP/NCI, 2004).

Several values for one entry are separate records, joined by “and”; a condition that tells them apart may be missing. Equal values may be shown once. Results filed as inconclusive are left out.

Regarding `Nc1ncn(C2OC(CO)C(O)C2O)c(=O)n1` (configuration not stated), the T/C runs as follows: (dose: 0.19 mg/kg/injection, schedule: Q01DX010 (sc), vehicle: saline) 164 % of control; (dose: 0.75 mg/kg/injection, schedule: Q01DX010 (sc), vehicle: saline) 40 % of control; (dose: 10.0 mg/kg/injection, schedule: Q04DX003 (sc), vehicle: saline) 101 % of control; (dose: 20.0 mg/kg/injection, schedule: Q04DX003 (sc), vehicle: saline) 52 % of control; under setting [1], 86 % of control; (dose: 200.0 mg/kg/injection, schedule: Q04DX003 (sc), vehicle: saline) 64 % of control. For the same compound, the T/C is, setting by setting: (dose: 200.0 mg/kg/injection, schedule: Q04DX003 (sc), vehicle: suspension in saline) 45 % of control; (dose: 400.0 mg/kg/injection, schedule: Q04DX003 (sc), vehicle: saline) 35 % of control; (dose: 800.0 mg/kg/injection, schedule: Q04DX003 (sc), vehicle: saline) 16 % of control; (dose: 800.0 mg/kg/injection, schedule: Q04DX003 (sc), vehicle: suspension in saline) 19 % of control and 28 % of control; (dose: 1228.8 mg/kg/injection, schedule: Q04DX003 (sc), vehicle: suspension in saline) -72 % of control; (dose: 1600.0 mg/kg/injection, schedule: Q04DX003 (sc), vehicle: suspension in saline) 12 % of control and 14 % of control. Further, the T/C is, setting by setting: (dose: 1920.0 mg/kg/injection, schedule: Q04DX003 (sc), vehicle: suspension in saline) -100 % of control; (dose: 2400.0 mg/kg/injection, schedule: Q04DX003 (sc), vehicle: suspension in saline) -100 % of control.
For the compound `COc1cc(NS(C)(=O)=O)ccc1Nc1c2ccccc2nc2ccccc12`, the T/C reads like this: (dose: 0.47 mg/kg/injection, schedule: Q01DX010 (sc), vehicle: clinical formulation) 151 % of control; (dose: 0.75 mg/kg/injection, schedule: Q01DX010 (sc), vehicle: other) 99 % of control; (dose: 0.94 mg/kg/injection, schedule: Q01DX010 (sc), vehicle: lactic acid) 84 % of control; (dose: 1.5 mg/kg/injection, schedule: Q01DX010 (sc), vehicle: other) 88 % of control; (dose: 1.88 mg/kg/injection, schedule: Q01DX010 (sc), vehicle: clinical formulation) 110 % of control; (dose: 1.88 mg/kg/injection, schedule: Q01DX010 (sc), vehicle: lactic acid) 109 % of control. In addition, the T/C runs as follows: (dose: 3.0 mg/kg/injection, schedule: Q01DX010 (sc), vehicle: other) 64 % of control; (dose: 3.75 mg/kg/injection, schedule: Q01DX010 (sc), vehicle: lactic acid) 46 % of control.
For `CC(=O)N(C)c1ccc(Nc2cc(C)[nH]c3ccc4ncnc4c23)cc1`, the T/C was 101 % of control under setting [2], 71 % of control under setting [3] and 56 % of control under setting [4].
For the compound `COC(C(=O)C(O)C(C)O)C1Cc2cc3cc(OC4CC(OC(C)=O)C(OC5CC(O)C(OC)C(C)O5)C(C)O4)cc(O)c3c(O)c2C(=O)C1OC1CC(OC2CC(OC3CC(C)(O)C(OC(=O)C(C)C)C(C)O3)C(O)C(C)O2)C(O)C(C)O1` (configuration not stated), the T/C is 77 % of control (dose: 1.0 mg/kg/injection, schedule: Q04DX003 (sc), vehicle: saline with Tween-80); 58 % of control (dose: 2.0 mg/kg/injection, schedule: Q04DX003 (sc), vehicle: saline with Tween-80); 12 % of control and 30 % of control (dose: 4.0 mg/kg/injection, schedule: Q01DX010 (sc), vehicle: saline with Tween-80); 50 % of control (dose: 4.0 mg/kg/injection, schedule: Q04DX003 (sc), vehicle: saline with Tween-80).
As for `Nc1n[nH]c(N)n1`, the T/C reads like this: (dose: 200.0 mg/kg/injection, schedule: Q01DX010 (sc), vehicle: saline) 109 % of control; (dose: 400.0 mg/kg/injection, schedule: Q01DX010 (sc), vehicle: saline) 106 % of control; (dose: 800.0 mg/kg/injection, schedule: Q01DX010 (sc), vehicle: saline) 84 % of control.
Take `CO[C@H]1C[C@@H]2CC[C@@H](C)[C@@](O)(O2)C(=O)C(=O)N2CCCC[C@H]2C(=O)O[C@H]([C@H](C)C[C@@H]2CC[C@@H](O)[C@H](OC)C2)CC(=O)[C@H](C)C=C(C)[C@@H](O)[C@@H](OC)C(=O)[C@H](C)C[C@H](C)/C=C/C=C/C=C1C`: the T/C was 72 % of control under setting [5]; 47 % of control under setting [6]; 37 % of control under setting [7]; 69 % of control (dose: 800.0 mg/kg/injection, schedule: Q01DX010 (sc), vehicle: saline with Tween-80).
In the case of `CNc1nc2c(N)ncnc2n1C1OC(CO)C(O)C1O` (configuration not stated), the T/C is 103 % of control (dose: 25.0 mg/kg/injection, schedule: Q04DX003 (sc), vehicle: saline); 82 % of control (dose: 50.0 mg/kg/injection, schedule: Q04DX003 (sc), vehicle: saline); 57 % of control under setting [1].
For `CCOC(=O)C(C)(C)Oc1ccc(Cl)cc1`, the T/C reads like this: under setting [8], 73 % of control; under setting [9], 97 % of control; (dose: 1200.0 mg/kg/injection, schedule: Q04DX003 (sc), vehicle: saline with Tween-80) 81 % of control.
Consider `C=CCc1cn(C2CC(O)C(CO)O2)c(=O)[nH]c1=O` (configuration not stated), for which the T/C by setting is: (dose: 300.0 mg/kg/injection, schedule: Q04DX003 (sc), vehicle: saline) 91 % of control; (dose: 600.0 mg/kg/injection, schedule: Q04DX003 (sc), vehicle: saline) 82 % of control; (dose: 1200.0 mg/kg/injection, schedule: Q04DX003 (sc), vehicle: saline) 74 % of control; (dose: 2400.0 mg/kg/injection, schedule: Q04DX003 (sc), vehicle: saline) 111 % of control.
`CCCC(=O)Oc1ccc(/C=N/NC(N)=S)nc1`: the T/C (dose: 50.0 mg/kg/injection, schedule: Q01DX010 (sc), vehicle: saline with Tween-80) is 91 % of control; the T/C under setting [5] is 110 % of control; the T/C under setting [6] was 40 % of control; the T/C under setting [7] is 15 % of control.
Turning to `C[CH2][Ge]([CH2]C)[CH2]C.C[CH2][Ge]([CH2]C)[CH2]C.C[CH2][Ge]([CH2]C)[O][Ge]([CH2]C)[CH2]C`, the T/C was 91 % of control (dose: 75.0 mg/kg/injection, schedule: Q04DX003 (sc), vehicle: saline with Tween-80); 98 % of control (dose: 150.0 mg/kg/injection, schedule: Q04DX003 (sc), vehicle: saline with Tween-80); 63 % of control under setting [8]; 114 % of control under setting [9].
For the compound `CSc1ncnc2c1ncn2C1OC(CO)C(O)C1O` (configuration not stated), the T/C was 166 % of control (dose: 75.0 mg/kg/injection, schedule: Q04DX003 (sc), vehicle: saline + alcohol) and 22 % of control (dose: 150.0 mg/kg/injection, schedule: Q04DX003 (sc), vehicle: saline + alcohol).
With `COC1=C(N)C(=O)c2nc(-c3nc(C(=O)O)c(C)c(-c4ccc(OC)c(OC)c4O)c3N)ccc2C1=O`, the T/C runs as follows: (dose: 0.13 mg/kg/injection, schedule: Q01DX010 (sc), vehicle: saline) 8 % of control; (dose: 0.25 mg/kg/injection, schedule: Q01DX010 (sc), vehicle: saline) 7 % of control and -6 % of control; (dose: 1.0 mg/kg/injection, schedule: Q01DX010 (sc), vehicle: saline) -85 % of control.
On to `Cc1ncc(CNC(=O)N(CCCl)N=O)c(N)n1`, for which, where the note is “dose: 18.75 mg/kg/injection, schedule: Q04DX003 (sc), vehicle: saline”, the T/C is 61 % of control.
On to `ClCCCN1CCN(CCCCl)CC1`, for which the T/C (dose: 150.0 mg/kg/injection, schedule: Q04DX003 (sc), vehicle: distilled water + alcohol) was 90 % of control.
With `CC1=C(/C=C/C(C)=C/C=C/C(C)=C/CO)C(C)(C)CCC1`, the T/C was 105 % of control under setting [2], 150 % of control under setting [3] and 111 % of control under setting [10].
With `O=c1c(O)c(-c2cc(O)c(O)c(O)c2)oc2cc(O)cc(O)c12`, the T/C (dose: 6.0 mg/kg/injection, schedule: Q04DX003 (sc), vehicle: saline with Tween-80) was 93 % of control; the T/C (dose: 12.0 mg/kg/injection, schedule: Q04DX003 (sc), vehicle: saline with Tween-80) is 99 % of control; the T/C (dose: 24.0 mg/kg/injection, schedule: Q04DX003 (sc), vehicle: saline with Tween-80) was 92 % of control; the T/C (dose: 48.0 mg/kg/injection, schedule: Q04DX003 (sc), vehicle: saline with Tween-80) was 96 % of control; the T/C under setting [2] was 100 % of control; the T/C under setting [3] is 83 % of control. Also, the T/C under setting [4] is 69 % of control and the T/C under setting [10] was 94 % of control.
